This is an account of results in patent publication US20060276537A1, “Use of ladostigil for the treatment of multiple sclerosis” (priority 2005, published 2006).

Broadly, the % Inhibition is the relative decrease from the control value, in per cent. Lower therefore signals little suppression.

The nature of test [1]: Body weight of the EAE mice (Table 7). The test is classed as in vivo. The text has this: These differences were statistically significant (p<0.000, Manova). According to the subsequent Post Hoc comparison (LSD), all the groups were different from the control (Table 7). […] On day 14, four days after the onset of the disease, sick mice lost an average of 2 g of weight. The average mean weight of GA-blocked mice was reduced by only 0.4 g. On day 23 the control group reached the lowest weight, 14.6 g.

The subject of test [2] is chronic progressive EAE induced by pMOG35-55 in C57BL/6 mice. In words: MOG-induced chronic progressive EAE in C57BL/6 mice, clinical scoring. In kind it is in vivo. The note with it: GA blocking, dose 250 mg/kg, given with inoculum on day 0. On the procedure:
MOG (Myelin oligodendrocyte glycoprotein) is a member of the immunoglobulin superfamily expressed exclusively in CNS myelin. It is one of the most encephalitogenic proteins and is widely used to induce EAE in different rodent strains. In C57BL/6 mice, immunization with the MOG peptide pMOG35-55 in CFA induces chronic progressive EAE. Ladostigil was tested in this model in order to assess its ability to inhibit the disease.
EAE was induced by subcutaneous injection of encephalitogenic emulsion at a volume of 0.2 ml/mouse in the right flank. On the day of induction, pertussis toxin was injected intraperitoneally at a volume dose of 0.2 ml/mouse. The injection of the pertussis toxin was repeated after 48 hours. At the end of the experiment, 6-7 brains from control and the ladostigil groups were dissected and frozen at −70° C. for CHE (cholinesterase) determination and 6-7 brains were dissected and frozen for MAO (monoamine oxidase) determination. Before sacrifice, blood for ChE determination was taken on heparine, hemolysed 1/20 in 10 mM cold phosphate buffer pH=6.0 and stored at −70° C. until the assay.
90 female C57Bl/6 mice 8-10 weeks old obtained from Harlan animal breeding center were used in the study. Mice were allocated randomly into 6 groups:
Both compounds were administered by gavage once daily during the whole experiment (30 days) at a volume of 0.2 ml/mouse.
The mice were observed daily from the 10th day post-EAE induction and the EAE clinical signs were scored. The scores were recorded on observation cards according to the grades described in Table 5:
The number of sick animals (animals with a score of ≧1 at any point) in each group was summed.
The incidence of disease and the % activity were calculated as follows: [formula] [formula] [formula]
The maximal scores of all mice in each group were summed.
The mean maximal score and the % activity of the group were calculated as follows: [formula] [formula] [formula]
The individual scores (IMS) of each of the mice during the observation period were summed (score 6 will be counted forward).
The GMS of the group and its % activity were calculated as follows: [formula] [formula] [formula]
Their dates of onset were calculated as day of termination +1.

For the substance “glatiramer acetate [GA, reference compound]”, the “Reduction of average mean weight” value in test [1] (GA-blocked mice, day 14) is given as 0.4 g. Further, in test [1] (day 2 after induction, GA blocking, dose 250 mg/kg), the “Weight of EAE mice” value is 18.6 ± 0.8 g. In test [2], the Incidence is listed as 14/15 and the Mortality was 0/15. Besides, the “% Inhibition” value in test [2] (vs control group mean score) is listed as 54.6%.
